In ChEMBL document CHEMBL1201862, “PubChem BioAssay data set” (2004):
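Test compounds were applied to cells in 96-well plates for 48 hours at 5 doses. GI50 is the concentration that inhibits growth by half.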 The source made the active and inactive calls. No stated cut-off is given here; in the data, active = GI50 up to about 1.1 µM and inactive = higher.

What was measured:
Assay in all cases: NCI-60 cell line screen, 48 h
COLO 205 = system: COLO 205
KM12 = system: KM12
SF-268 = system: SF-268
PC-3 = system: PC-3
SK-OV-3 = system: SK-OV-3
SF-539 = system: SF-539
UACC-257 = system: UACC-257
786-0 = system: 786-0
SW-620 = system: SW-620
A549 = system: A549
SK-MEL-2 = system: SK-MEL-2
U-251 = system: U-251
NCI/ADR-RES = system: NCI/ADR-RES
SNB-19 = system: SNB-19
RPMI-8226 = system: RPMI-8226
MDA-N = system: MDA-N
MCF7 = system: MCF7
UACC-62 = system: UACC-62
EKVX = system: EKVX
OVCAR-4 = system: OVCAR-4
SR = system: SR
SK-MEL-28 = system: SK-MEL-28
MDA-MB-231 = system: MDA-MB-231
OVCAR-8 = system: OVCAR-8
SNB-75 = system: SNB-75
UO-31 = system: UO-31
SF-295 = system: SF-295
SK-MEL-5 = system: SK-MEL-5
Hs-578T = system: Hs-578T
K562 = system: K562
HCT-116 = system: HCT-116
A498 = system: A498
MDA-MB-435 = system: MDA-MB-435
T47D = system: T47D
M14 = system: M14
NCI-H460 = system: NCI-H460
HT-29 = system: HT-29
NCI-H23 = system: NCI-H23
MOLT-4 = system: MOLT-4
CCRF-CEM = system: CCRF-CEM
CAKI-1 = system: CAKI-1
TK-10 = system: TK-10
DU-145 = system: DU-145
OVCAR-3 = system: OVCAR-3
HL-60 = system: HL-60
OVCAR-5 = system: OVCAR-5
LOX IMVI = system: LOX IMVI
IGROV-1 = system: IGROV-1
HOP-62 = system: HOP-62
NCI-H522 = system: NCI-H522
ACHN = system: ACHN
SN12C = system: SN12C
BT-549 = system: BT-549
HCT-15 = system: HCT-15
NCI-H226 = system: NCI-H226

## Nc1ncc2ncn(C3CCC(CO)O3)c2n1 (stereo not given)
COLO 205
  GI50: > 100 µM (inactive)
KM12
  GI50: > 100 µM (inactive)
SF-268
  GI50: > 100 µM (inactive)
PC-3
  GI50: > 100 µM (inactive)
SK-OV-3
  GI50: > 100 µM (inactive)
SF-539
  GI50: > 100 µM (inactive)
UACC-257
  GI50: > 100 µM (inactive)
786-0
  GI50: > 100 µM (inactive)
SW-620
  GI50: > 100 µM (inactive)
A549
  GI50: > 100 µM (inactive)
SK-MEL-2
  GI50: > 100 µM (inactive)
U-251
  GI50: > 100 µM (inactive)
NCI/ADR-RES
  GI50: > 100 µM (inactive)
SNB-19
  GI50: > 100 µM (inactive)
RPMI-8226
  GI50: > 100 µM (inactive)
MDA-N
  GI50: > 100 µM (inactive)
MCF7
  GI50: > 100 µM (inactive)
UACC-62
  GI50: > 100 µM (inactive)
EKVX
  GI50: > 100 µM (inactive)
OVCAR-4
  GI50: > 100 µM (inactive)
SR
  GI50: > 100 µM (inactive)
SK-MEL-28
  GI50: > 100 µM (inactive)
MDA-MB-231
  GI50: > 100 µM (inactive)
OVCAR-8
  GI50: > 100 µM (inactive)
SNB-75
  GI50: > 100 µM (inactive)
UO-31
  GI50: > 100 µM (inactive)
SF-295
  GI50: > 100 µM (inactive)
SK-MEL-5
  GI50: > 100 µM (inactive)
Hs-578T
  GI50: > 100 µM (inactive)
K562
  GI50: > 100 µM (inactive)
HCT-116
  GI50: > 100 µM (inactive)
A498
  GI50: 88.7 µM (inactive)
MDA-MB-435
  GI50: > 100 µM (inactive)
T47D
  GI50: > 100 µM (inactive)
M14
  GI50: > 100 µM (inactive)
NCI-H460
  GI50: > 100 µM (inactive)
HT-29
  GI50: > 100 µM (inactive)
NCI-H23
  GI50: > 100 µM (inactive)
MOLT-4
  GI50: > 100 µM (inactive)
CCRF-CEM
  GI50: > 100 µM (inactive)
CAKI-1
  GI50: > 100 µM (inactive)
TK-10
  GI50: > 100 µM (inactive)
DU-145
  GI50: > 100 µM (inactive)
OVCAR-3
  GI50: > 100 µM (inactive)
HL-60
  GI50: > 100 µM (inactive)
OVCAR-5
  GI50: > 100 µM (inactive)
LOX IMVI
  GI50: > 100 µM (inactive)
IGROV-1
  GI50: > 100 µM (inactive)
HOP-62
  GI50: > 100 µM (inactive)
NCI-H522
  GI50: > 100 µM (inactive)
ACHN
  GI50: > 100 µM (inactive)
SN12C
  GI50: > 100 µM (inactive)
BT-549
  GI50: > 100 µM (inactive)
HCT-15
  GI50: > 100 µM
NCI-H226
  GI50: > 100 µM (inactive)
